Results published in patent US11899014B2, “Detection of analytes using live cells” (THE TRUSTEES OF COLUMBIA UNIVERSITY IN THE CITY OF NEW YORK, priority 2014, dated 2024).

Key:
[1] = target: S. cerevisiae native Ste2 receptor (Saccharomyces cerevisiae, UniProt D6VTK4); assay: Fungal GPCR activation in S. cerevisiae sensor strain, fluorescent reporter; type: cell-based; conditions: non-cognate peptide
[2] = test system: C. albicans mating receptor (Ca.Ste2) biosensor; assay: Paper-based dipstick assay, lycopene readout, C. albicans biosensor; type: cell-based, Candida albicans; conditions: 1 μM peptide
[3] = test system: C. glabrata mating GPCR
[4] = test system: M. oryzea mating GPCR; type: cell-based, Magnaporthe oryzea
[5] = test system: B. cinerea mating GPCR; type: cell-based, Botrytis cinerea; conditions: cognate synthetic peptide pheromone, fluorescent readout
[6] = test system: P. brasiliensis mating receptor (Pb.Ste2) biosensor; type: cell-based, Paracoccidioides brasiliensis
[7] = test system: F. graminearum mating GPCR; type: cell-based, Fusarium graminearum
[8] = target: endogenous GPCR Ste2 (Saccharomyces cerevisiae, UniProt D6VTK4); type: cell-based, S. cerevisiae; conditions: v1.0 lycopene reporter strain
[9] = test system: C. albicans mating GPCR (Ca.Ste2); type: cell-based, Candida albicans; conditions: non-cognate peptide
[10] = test system: L. elongisporous mating GPCR; type: cell-based; conditions: cognate synthetic peptide pheromone, fluorescent readout

S. cerevisiae native Ste2 receptor, sequence (D6VTK4 whole entry): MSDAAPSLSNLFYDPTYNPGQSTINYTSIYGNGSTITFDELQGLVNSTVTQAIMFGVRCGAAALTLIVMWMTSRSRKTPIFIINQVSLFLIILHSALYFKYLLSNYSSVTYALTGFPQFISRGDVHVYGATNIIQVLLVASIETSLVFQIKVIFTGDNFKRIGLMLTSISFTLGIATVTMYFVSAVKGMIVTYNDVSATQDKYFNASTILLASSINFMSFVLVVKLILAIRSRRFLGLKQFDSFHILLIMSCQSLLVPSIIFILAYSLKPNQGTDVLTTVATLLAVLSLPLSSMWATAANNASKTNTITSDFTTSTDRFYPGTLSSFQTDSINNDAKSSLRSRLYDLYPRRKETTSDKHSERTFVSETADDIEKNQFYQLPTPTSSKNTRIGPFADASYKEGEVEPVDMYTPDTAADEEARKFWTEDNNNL
endogenous GPCR Ste2, sequence (D6VTK4 whole entry): as above

GFRLTNFGYFEPG [GFRLTNFGYFEPG (SEQ ID NO: 5)]
response of S. cerevisiae native Ste2 receptor to non-cognate pheromone [1]: not | time to maximal response in dipstick assay [2]: ≤ 12 h | response of C. glabrata receptor to the other species pheromone ([3]; non-cognate peptide): did not respond

QWCPRRGQPCW [QWCPRRGQPCW (SEQ ID NO: 17)]
EC50 [4]: 5000 nM

WCGRPGQPC [WCGRPGQPC (SEQ ID NO: 20)]
EC50 [5]: < 1 nM

WCTRPGQGC [WCTRPGQGC (SEQ ID NO: 11)]
time to maximal response in dipstick assay [6]: ≤ 12 h

WCWWKGQPCW [WCWWKGQPCW (SEQ ID NO: 14)]
EC50 [7]: 230 nM

WHWLQLKPGQPMY [WHWLQLKPGQPMY (SEQ ID NO: 24)]
time until reporter strain became visibly orange after exposure [8]: 36 h

WHWVRLRKGQGLF [WHWVRLRKGQGLF (SEQ ID NO: 8)]
response of C. albicans receptor to the other species pheromone [9]: did not respond | response of S. cerevisiae native Ste2 receptor to non-cognate pheromone [1]: responded | EC50 ([3]; cognate synthetic peptide pheromone, biosensor settings): 3600 nM

WMWTRYGRFSPV [WMWTRYGRFSPV (SEQ ID NO: 34)]
EC50 [10]: 51 nM
